According to PMC6155021, “Ancient and modern anticonvulsants act synergistically in a KCNQ potassium channel binding pocket” (Nature Communications, 2018):

Tests used:
Format in all cases: cell-based
KCNQ2 = KCNQ2 (Homo sapiens, UniProt O43526); assay: Two-electrode voltage-clamp of homomeric KCNQ2 in Xenopus oocytes
Description: (§1) cRNA transcripts encoding human KCNA1, KCNQ1, KCNQ2, KCNQ3, KCNQ4, or KCNQ5 were generated by in vitro transcription using the T7 polymerase message machine kit (Thermo Fisher Scientific), after vector linearization, from cDNA sub-cloned into plasmids incorporating X. laevis β-globin 5′ and 3′ UTRs flanking the coding region to enhance translation and cRNA stability. cRNA was quantified by spectrophotometry. Mutant cDNAs were generated by site-directed mutagenesis using a QuikChange kit according to manufacturer’s protocol (Stratagene, San Diego, CA) and corresponding cRNAs prepared as above. Defolliculated stage V and VI X. laevis oocytes (Ecocyte Bioscience, Austin, TX) were injected with Kv channel α subunit cRNAs (10 ng total per oocyte). Oocytes were incubated at 16 °C in Barth’s saline solution (Ecocyte) containing penicillin and streptomycin, with daily washing, for 3–5 days prior to two-electrode voltage-clamp (TEVC) recording.
(§2) Oocytes were placed in a small-volume oocyte bath (Warner) and viewed with a dissection microscope. Chemicals were sourced from Sigma. Bath solution was (in mM): 96 NaCl, 4 KCl, 1 MgCl2, 1 CaCl2, 10 HEPES (pH 7.6). […] MTX (DMSO), sorbic acid (ethanol), and glutaconic acid (molecular grade H2O) were stored at −20 °C as 1 M stocks. Oleamide was stored as a 1 mM stock in ethanol at 4 °C. Palmitic acid was conjugated with bovine serum albumin as a 1 mM stock and stored at −20 °C. All compounds were diluted to working concentrations each experimental day. All compounds were introduced to the recording bath via gravity perfusion at a constant flow of 1 ml/min for 3 min prior to recording. Pipettes were of 1–2 MΩ resistance when filled with 3 M KCl. Currents were recorded in response to pulses between −80 and +40 mV at 20 mV intervals, or a single pulse to +40 mV, from a holding potential of −80 mV, to yield current–voltage relationships, current magnitude, and for quantifying activation rate. TEVC data analysis was performed with Clampfit10.2 (Molecular Devices) and Graphpad Prism software (GraphPad, San Diego, CA, USA); values are stated as mean ± SEM. Normalized tail currents were plotted versus prepulse voltage and fitted with a single Boltzmann function:1 g=A1-A2/1+expV12-Vy+A2, where g is the normalized tail conductance, A1 is the initial value at −∞, A2 is the final value at +∞, V1/2 is the half-maximal voltage of activation, and Vs the slope factor. Activation and deactivation kinetics were fitted with single-exponential functions.

KCNQ3* (KCNQ3-A315T) = KCNQ3* (KCNQ3-A315T) (Homo sapiens, UniProt O43525, A315T); assay: cell-based
Sequence of KCNQ3* (KCNQ3-A315T) (O43525 whole entry A315T, looked up): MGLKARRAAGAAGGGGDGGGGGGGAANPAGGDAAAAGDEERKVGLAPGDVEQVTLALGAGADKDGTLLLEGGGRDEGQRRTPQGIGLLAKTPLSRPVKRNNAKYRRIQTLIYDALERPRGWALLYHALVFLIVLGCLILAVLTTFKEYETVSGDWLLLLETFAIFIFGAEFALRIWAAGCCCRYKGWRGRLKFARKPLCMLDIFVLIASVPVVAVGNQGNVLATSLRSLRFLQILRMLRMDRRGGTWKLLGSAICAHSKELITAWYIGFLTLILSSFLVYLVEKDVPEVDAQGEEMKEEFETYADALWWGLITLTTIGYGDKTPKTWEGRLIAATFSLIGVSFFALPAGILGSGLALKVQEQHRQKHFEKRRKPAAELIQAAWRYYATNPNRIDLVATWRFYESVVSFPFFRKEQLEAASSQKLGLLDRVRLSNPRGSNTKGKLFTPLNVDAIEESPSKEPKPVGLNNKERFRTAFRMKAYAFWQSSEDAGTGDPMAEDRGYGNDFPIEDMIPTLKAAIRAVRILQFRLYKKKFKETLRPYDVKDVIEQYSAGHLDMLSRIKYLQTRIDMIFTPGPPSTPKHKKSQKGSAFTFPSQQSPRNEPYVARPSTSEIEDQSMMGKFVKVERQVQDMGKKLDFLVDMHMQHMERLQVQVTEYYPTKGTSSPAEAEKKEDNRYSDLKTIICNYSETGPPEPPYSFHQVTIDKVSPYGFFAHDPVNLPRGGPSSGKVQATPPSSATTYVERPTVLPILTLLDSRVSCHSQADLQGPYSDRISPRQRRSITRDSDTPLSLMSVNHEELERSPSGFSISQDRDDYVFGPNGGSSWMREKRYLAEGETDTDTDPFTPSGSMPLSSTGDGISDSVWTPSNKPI
Description: as §1, §2

KCNQ4 = KCNQ4 (Homo sapiens, UniProt P56696); assay: cell-based
Description: as §1, §2

[1] = molecular target: KCNQ2-W236L/KCNQ3-W265L channels (Homo sapiens, UniProt O43525+O43526, W236L/W265L); assay: Two-electrode voltage-clamp of W236L-Q2/W265L-Q3 mutant channels in Xenopus oocytes; conditions: for Non-normalized tail current V0.5 / Normalized tail current V0.5 / Slope: W236L-Q2/W265L-Q3
Description: as §1, §2

CC(=O)c1c(O)c(C)c(O)c(Cc2c(O)c3c(c(C(=O)/C=C/c4ccccc4)c2O)OC(C)(C)C=C3)c1O [MTX, mallotoxin]
EC50 (KCNQ2): 6.4 µM | Non-normalized tail current V0.5 (KCNQ2; KCNQ2, 0.1 µM): -50.0 ± 0.4 mV | Normalized tail current V0.5 (KCNQ2; KCNQ2, 0.1 µM): -50.0 ± 0.35 mV | Slope (KCNQ2; KCNQ2, 0.1 µM): 7.4 ± 0.23 mV | τ act, -40 mV (KCNQ2; KCNQ2, 0.1 µM): 538 ± 20 ms | τ deact, -80 mV (KCNQ2; KCNQ2, 0.1 µM): 294 ± 10 ms | Non-normalized tail current V0.5 (KCNQ2; KCNQ2, 1 µM): -51.7 ± 2.0 mV | Normalized tail current V0.5 (KCNQ2; KCNQ2, 1 µM): -51.4 ± 0.46 mV | Slope (KCNQ2; KCNQ2, 1 µM): 7.4 ± 0.31 mV | τ act, -40 mV (KCNQ2; KCNQ2, 1 µM): 490 ± 23 ms | τ deact, -80 mV (KCNQ2; KCNQ2, 1 µM): 271 ± 11 ms | Non-normalized tail current V0.5 (KCNQ2; KCNQ2, 3 µM): -52.1 ± 2.5 mV | Normalized tail current V0.5 (KCNQ2; KCNQ2, 3 µM): -54.9 ± 0.41 mV | Slope (KCNQ2; KCNQ2, 3 µM): 7.3 ± 0.33 mV | τ act, -40 mV (KCNQ2; KCNQ2, 3 µM): 417 ± 25 ms | τ deact, -80 mV (KCNQ2; KCNQ2, 3 µM): 237 ± 12 ms | Non-normalized tail current V0.5 (KCNQ2; KCNQ2, 10 µM): -61.7 ± 2.7 mV | Normalized tail current V0.5 (KCNQ2; KCNQ2, 10 µM): -61.2 ± 0.87 mV | Slope (KCNQ2; KCNQ2, 10 µM): 7.0 ± 1.0 mV | τ act, -40 mV (KCNQ2; KCNQ2, 10 µM): 341 ± 22 ms | τ deact, -80 mV (KCNQ2; KCNQ2, 10 µM): 199 ± 11 ms | Non-normalized tail current V0.5 (KCNQ2; KCNQ2, 30 µM): -68.7 ± 2.7 mV | Normalized tail current V0.5 (KCNQ2; KCNQ2, 30 µM): -68.5 ± 1.5 mV | Slope (KCNQ2; KCNQ2, 30 µM): 7.4 ± 0.6 mV | shift in midpoint voltage of activation (KCNQ2; KCNQ2, 30 µM): −24 mV | τ act, -40 mV (KCNQ2; KCNQ2, 30 µM): 301 ± 19 ms | τ deact, -80 mV (KCNQ2; KCNQ2, 30 µM): 173 ± 10 ms | Non-normalized tail current V0.5 (KCNQ2; KCNQ2, 100 µM): -66.2 ± 2.7 mV | Normalized tail current V0.5 (KCNQ2; KCNQ2, 100 µM): -66.0 ± 2.7 mV | Slope (KCNQ2; KCNQ2, 100 µM): 8.1 ± 1.2 mV | τ act, -40 mV (KCNQ2; KCNQ2, 100 µM): 353 ± 22 ms | τ deact, -80 mV (KCNQ2; KCNQ2, 100 µM): 190 ± 8 ms | EC50 (KCNQ3* (KCNQ3-A315T)): 13 µM | Non-normalized tail current V0.5 (KCNQ3* (KCNQ3-A315T); KCNQ3*, 1 µM): -56.1 ± 4.2 mV | Normalized tail current V0.5 (KCNQ3* (KCNQ3-A315T); KCNQ3*, 1 µM): -56.4 ± 1.6 mV | τ act, -40 mV (KCNQ3* (KCNQ3-A315T); KCNQ3*, 1 µM): 552 ± 98 ms | τ deact, -80 mV (KCNQ3* (KCNQ3-A315T); KCNQ3*, 1 µM): 290 ± 51 ms | Non-normalized tail current V0.5 (KCNQ3* (KCNQ3-A315T); KCNQ3*, 3 µM): -57.4 ± 5.3 mV | Normalized tail current V0.5 (KCNQ3* (KCNQ3-A315T); KCNQ3*, 3 µM): -57.3 ± 1.4 mV | τ act, -40 mV (KCNQ3* (KCNQ3-A315T); KCNQ3*, 3 µM): 489 ± 55 ms | τ deact, -80 mV (KCNQ3* (KCNQ3-A315T); KCNQ3*, 3 µM): 263 ± 29 ms | Non-normalized tail current V0.5 (KCNQ3* (KCNQ3-A315T); KCNQ3*, 10 µM): -59.5 ± 4.2 mV | Normalized tail current V0.5 (KCNQ3* (KCNQ3-A315T); KCNQ3*, 10 µM): -59.5 ± 1.0 mV | τ act, -40 mV (KCNQ3* (KCNQ3-A315T); KCNQ3*, 10 µM): 421 ± 26 ms | τ deact, -80 mV (KCNQ3* (KCNQ3-A315T); KCNQ3*, 10 µM): 244 ± 17 ms | Non-normalized tail current V0.5 (KCNQ3* (KCNQ3-A315T); KCNQ3*, 30 µM): -62.1 ± 3.9 mV | Normalized tail current V0.5 (KCNQ3* (KCNQ3-A315T); KCNQ3*, 30 µM): -62.3 ± 1.2 mV | shift in midpoint voltage of activation (KCNQ3* (KCNQ3-A315T); KCNQ3*, 30 µM): −9 mV | τ act, -40 mV (KCNQ3* (KCNQ3-A315T); KCNQ3*, 30 µM): 388 ± 20 ms | τ deact, -80 mV (KCNQ3* (KCNQ3-A315T); KCNQ3*, 30 µM): 240 ± 18 ms | Non-normalized tail current V0.5 (KCNQ3* (KCNQ3-A315T); KCNQ3*, 100 µM): -65.2 ± 3.9 mV | Normalized tail current V0.5 (KCNQ3* (KCNQ3-A315T); KCNQ3*, 100 µM): -66.2 ± 2.1 mV | τ act, -40 mV (KCNQ3* (KCNQ3-A315T); KCNQ3*, 100 µM): 403 ± 36 ms | τ deact, -80 mV (KCNQ3* (KCNQ3-A315T); KCNQ3*, 100 µM): 269 ± 30 ms | EC50 (KCNQ4): 20.2 µM | Non-normalized tail current V0.5 (KCNQ4; KCNQ4, 0.1 µM): -17.1 ± 8.1 mV | Normalized tail current V0.5 (KCNQ4; KCNQ4, 0.1 µM): -17.0 ± 1.6 mV | Slope (KCNQ4; KCNQ4, 0.1 µM): 14.1 ± 1.6 mV | τ act, -40 mV (KCNQ4; KCNQ4, 0.1 µM): 941 ± 52 ms | τ deact, -80 mV (KCNQ4; KCNQ4, 0.1 µM): 924 ± 223 ms | Non-normalized tail current V0.5 (KCNQ4; KCNQ4, 1 µM): -18.1 ± 9.0 mV | Normalized tail current V0.5 (KCNQ4; KCNQ4, 1 µM): -18.1 ± 1.9 mV | Slope (KCNQ4; KCNQ4, 1 µM): 15.0 ± 1.9 mV | τ act, -40 mV (KCNQ4; KCNQ4, 1 µM): 878 ± 78 ms | τ deact, -80 mV (KCNQ4; KCNQ4, 1 µM): 891 ± 234 ms | Non-normalized tail current V0.5 (KCNQ4; KCNQ4, 3 µM): -20.5 ± 9.8 mV | Normalized tail current V0.5 (KCNQ4; KCNQ4, 3 µM): -20.1 ± 1.3 mV | Slope (KCNQ4; KCNQ4, 3 µM): 15.6 ± 1.9 mV | τ act, -40 mV (KCNQ4; KCNQ4, 3 µM): 851 ± 70 ms | τ deact, -80 mV (KCNQ4; KCNQ4, 3 µM): 861 ± 240 ms | Non-normalized tail current V0.5 (KCNQ4; KCNQ4, 10 µM): -25.3 ± 9.7 mV | Normalized tail current V0.5 (KCNQ4; KCNQ4, 10 µM): -25.6 ± 1.9 mV | Slope (KCNQ4; KCNQ4, 10 µM): 15.9 ± 1.9 mV | τ act, -40 mV (KCNQ4; KCNQ4, 10 µM): 847 ± 94 ms | τ deact, -80 mV (KCNQ4; KCNQ4, 10 µM): 906 ± 293 ms | Non-normalized tail current V0.5 (KCNQ4; KCNQ4, 30 µM): -32.9 ± 9.7 mV | Normalized tail current V0.5 (KCNQ4; KCNQ4, 30 µM): -32.1 ± 1.9 mV | Slope (KCNQ4; KCNQ4, 30 µM): 14.4 ± 1.8 mV | shift in midpoint voltage of activation (KCNQ4; KCNQ4, 30 µM): −17 mV | τ act, -40 mV (KCNQ4; KCNQ4, 30 µM): 865 ± 108 ms | τ deact, -80 mV (KCNQ4; KCNQ4, 30 µM): 905 ± 283 ms | Non-normalized tail current V0.5 (KCNQ4; KCNQ4, 100 µM): -31.3 ± 9.4 mV | Normalized tail current V0.5 (KCNQ4; KCNQ4, 100 µM): -31.5 ± 1.3 mV | Slope (KCNQ4; KCNQ4, 100 µM): 16.4 ± 3.2 mV | τ act, -40 mV (KCNQ4; KCNQ4, 100 µM): 1092 ± 170 ms | τ deact, -80 mV (KCNQ4; KCNQ4, 100 µM): 1197 ± 446 ms | EC50 [1]: 14.9 ± 0.1 µM | Non-normalized tail current V0.5 ([1]; 1 µM): -62.5 ± 3.4 mV | Normalized tail current V0.5 ([1]; 1 µM): -62.8 ± 0.4 mV | Slope ([1]; 1 µM): 5.9 ± 0.5 mV | Non-normalized tail current V0.5 ([1]; 3 µM): -63.6 ± 3.7 mV | Normalized tail current V0.5 ([1]; 3 µM): -64.1 ± 0.9 mV | Slope ([1]; 3 µM): 6.3 ± 0.9 mV | Non-normalized tail current V0.5 ([1]; 10 µM): -66.3 ± 3.9 mV | Normalized tail current V0.5 ([1]; 10 µM): -67.3 ± 0.9 mV | Slope ([1]; 10 µM): 6.4 ± 0.6 mV | Non-normalized tail current V0.5 ([1]; 30 µM): -70.6 ± 3.7 mV | Normalized tail current V0.5 ([1]; 30 µM): -71.9 ± 0.9 mV | Slope ([1]; 30 µM): 6.3 ± 0.5 mV | Non-normalized tail current V0.5 ([1]; 100 µM): -74.4 ± 3.9 mV | Normalized tail current V0.5 ([1]; 100 µM): -77.3 ± 1.4 mV | Slope ([1]; 100 µM): 5.9 ± 1.8 mV
